Measurements reported in patent US9023789B2, “Amylin analogs and pharmaceutical compositions thereof” (Novo Nordisk A/S, priority 2012, dated 2015).
Values after ≈ are worked out from the molar mass of the structure shown. Where two headings read alike, the source gives them in different places. Numbered stars: 1 amine (or outer) side, 2 acyl side, 3 side chain; on linkers, the order of the positions; unused ones are H or OH. Bridge positions count the residues as written; N and C are the ends. Peptide text beside a SMILES is read from it. * marks the point of attachment. C20 diacid = O=C(O)CCCCCCCCCCCCCCCCCCC(=O)*; γGlu = O=C(O)[C@H](CCC(=O)[*:2])N[*:1]

Key:
[1] = target: T1, human calcitonin (a) receptor in BHK570 cells (Homo sapiens, UniProt P30988); assay: ASSAY (II)a functional assay, human calcitonin receptor (CRE luciferase); assay type: cell-based; conditions: read-out: hCTR funct. EC50
T1 construct: expressed in transfected cells
T1 sequence (P30988 25-474): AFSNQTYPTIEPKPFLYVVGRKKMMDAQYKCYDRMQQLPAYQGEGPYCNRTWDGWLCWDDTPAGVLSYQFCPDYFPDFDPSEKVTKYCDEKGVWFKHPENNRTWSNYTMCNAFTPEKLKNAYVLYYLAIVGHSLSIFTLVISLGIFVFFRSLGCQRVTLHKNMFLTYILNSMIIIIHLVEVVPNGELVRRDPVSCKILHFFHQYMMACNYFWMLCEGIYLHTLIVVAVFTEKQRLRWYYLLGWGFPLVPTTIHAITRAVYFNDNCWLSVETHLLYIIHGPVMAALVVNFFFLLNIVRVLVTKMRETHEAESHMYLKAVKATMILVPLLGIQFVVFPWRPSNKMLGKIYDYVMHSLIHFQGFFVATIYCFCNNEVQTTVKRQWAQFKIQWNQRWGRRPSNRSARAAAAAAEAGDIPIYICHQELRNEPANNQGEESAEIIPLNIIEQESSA
In short: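 Ligand exposure 3 h at 37 °C, 5% CO2 in DMEM with 10% FBS, 10 mM Hepes pH 7.4. cAMP-driven luciferase read by luminescence after 30 min LucLite at room temperature.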

[2] = target: T2, rat amylin receptor (rat calcitonin receptor + rat RAMP 3) (Rattus norvegicus, UniProt P32214+Q9JJ73); assay: ASSAY (VI) binding to the rat amylin receptor
T2 construct: expressed in transfected cells; host or cells: BHK tk'ts 13 (transient, FuGENE 6), membranes
T2 sequence (P32214 25-479 isoform P32214-2 limits assumed): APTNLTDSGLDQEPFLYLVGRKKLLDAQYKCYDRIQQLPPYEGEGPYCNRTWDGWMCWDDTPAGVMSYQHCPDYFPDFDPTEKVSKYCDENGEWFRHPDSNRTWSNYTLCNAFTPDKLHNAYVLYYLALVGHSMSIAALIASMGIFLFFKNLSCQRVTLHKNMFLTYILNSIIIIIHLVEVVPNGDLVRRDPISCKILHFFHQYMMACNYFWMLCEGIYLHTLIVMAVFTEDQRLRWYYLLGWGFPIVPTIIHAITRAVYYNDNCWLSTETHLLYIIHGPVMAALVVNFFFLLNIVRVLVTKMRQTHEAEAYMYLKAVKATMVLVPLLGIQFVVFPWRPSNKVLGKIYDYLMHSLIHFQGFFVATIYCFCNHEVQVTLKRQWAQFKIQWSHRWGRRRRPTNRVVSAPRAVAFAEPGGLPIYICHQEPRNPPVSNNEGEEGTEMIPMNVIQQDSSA
T2 sequence (Q9JJ73 23-147 partner): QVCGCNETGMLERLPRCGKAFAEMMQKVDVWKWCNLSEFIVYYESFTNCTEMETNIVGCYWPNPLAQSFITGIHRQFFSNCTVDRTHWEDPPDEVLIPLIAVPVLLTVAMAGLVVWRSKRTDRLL
In short: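 This assay measured binding to the rat amylin receptor. BHK tk′ts 13 cells were transiently transfected with the rat calcitonin receptor using FuGENE® 6 (Roche), following the manufacturer's recommendations. About 48 hours after transfection, the cells were harvested and membranes were prepared from them for the binding determination.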

[3] = target: T3, human calcitonin receptor (Homo sapiens, UniProt P30988); assay: ASSAY (VII) binding to the human calcitonin receptor (SPA, 125I-Calcitonin); conditions: read-out: hCTR bind IC50;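 note: cell membranes (35 ng/µL) combined with SPA beads in 40 µL of pH 7.4 Hepes buffer, 384-well format, signal counted on a TopCounter instrument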
T3 construct: expressed in transfected cells
T3 sequence (P30988 25-474): T1 sequence (P30988 25-474)

[4] = ASSAY (IV) determination of solubility; assay type: physicochemical
In short: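 Dissolve polypeptide in water ([…] stock); combine 1:1 with each 100 mM buffer (glycylglycine pH 3.0/4.0/5.0; bistrispropane pH 6.0/6.5/7.0/7.5/8.0); hold 18 hours at room temperature; centrifuge; quantify polypeptide by UPLC.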

[5] = target: T4, human amylin receptor (membranes from Amylin 3(a)/CRE-luc cells) (Homo sapiens, UniProt O60896+P30988); assay: ASSAY (V) binding to the human amylin receptor (SPA, 125I-rat amylin);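 note: competition binding of cell membranes (35 ng/µL) mixed with SPA beads in 384-well plates at 40 µL total volume, read by scintillation counting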
T4 construct: expressed in transfected cells
T4 sequence (P30988 25-474): T1 sequence (P30988 25-474)
T4 sequence (O60896 24-148 partner): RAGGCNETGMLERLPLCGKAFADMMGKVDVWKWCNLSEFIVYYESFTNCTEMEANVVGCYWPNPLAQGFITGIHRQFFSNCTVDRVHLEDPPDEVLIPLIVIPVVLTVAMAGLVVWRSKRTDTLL

[6] = target: T5, rat calcitonin receptor (Rattus norvegicus, UniProt P32214); assay: ASSAY (VIII) binding to the rat calcitonin receptor; conditions: Table 7, read-out: rCTR bind IC50
T5 construct: expressed in transfected cells; host or cells: BHK tk'ts 13 (transient, FuGENE 6), membranes
T5 sequence (P32214 25-479 isoform P32214-2 limits assumed): T2 sequence (P32214 25-479 isoform P32214-2 limits assumed)
In short: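 Rat calcitonin receptor is expressed transiently in BHK tk′ts 13 cells cultured in DMEM with 10% FBS. Roughly two days (approximately 48 hours) post-transfection, cells are harvested for membrane preparation.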

EC50 [1]: 2.35 nM
IC50 ([2]; Table 7, binding to rat amylin receptor, read-out: rAmylin-R bind IC50): 2.71 nM
Ratio rCT/rAmylin binding ([2]; Table 7, rat binding selectivity, rCTR IC50 / rAmylin-R IC50): 35.9
Ratio rCT/rAmylin binding ([2]; Table 7a (preferred compounds), rat binding selectivity, rCTR IC50 / rAmylin-R IC50): 35.9
Ratio rCT/rAmylin binding ([2]; ratio of rCTR bind IC50 to rAmylin-R bind IC50): 35.9
IC50 [3]: 10.9 nM
solubility at 18 h ([4]; bistrispropane buffer, pH 6.5, read-out: Solubility pH 6.5 Concentration): ≥ 200 µM
solubility at 18 h ([4]; bistrispropane buffer, pH 7.5, read-out: Solubility pH 7.5 Concentration): 159 µM (≈ 707 µg/mL)
solubility at 18 h ([4]; bistrispropane buffer, pH 6.0, read-out: Solubility pH 6.0 Concentration): ≥ 200 µM
solubility at 18 h ([4]; bistrispropane buffer, pH 7.0, read-out: Solubility pH 7.0 Concentration): ≥ 200 µM
solubility at 18 h ([4]; bistrispropane buffer, pH 8.0, read-out: Solubility pH 8.0 Concentration): 154 µM (≈ 685 µg/mL)
solubility at 18 h ([4]; glycylglycine buffer, pH 3.0, read-out: Solubility pH 3.0 Concentration): ≥ 200 µM
solubility at 18 h ([4]; glycylglycine buffer, pH 4.0, read-out: Solubility pH 4.0 Concentration): ≥ 200 µM
solubility at 18 h ([4]; glycylglycine buffer, pH 5.0, read-out: Solubility pH 5.0 Concentration): ≥ 200 µM
IC50 ([5]; Table 4, read-out: hAmylin-R bind IC50): 0.878 nM
Ratio hCT/hAmylin binding ([5]; Table 5, selectivity, hCTR bind IC50 / hAmylin-R bind IC50): 12.5
Ratio hCT/hAmylin binding ([5]; Table 5a, selectivity, hCTR bind IC50 / hAmylin-R bind IC50): 12.5
Ratio hCT/hAmylin binding ([5]; Table 7, human binding selectivity, included for comparison): 12.5
Ratio hCT/hAmylin binding ([5]; Table 7a (preferred compounds), human binding selectivity, included for comparison): 12.5
Ratio hCT/hAmylin binding ([5]; ratio of human calcitonin receptor binding IC50 to human amylin receptor binding IC50): 12.5
IC50 [6]: 97.2 nM
SMILES: CC[C@H](C)[C@H](NC(=O)[C@H](C)NC(=O)CNC(=O)[C@H](Cc1ccccc1)NC(=O)[C@H](CC(N)=O)NC(=O)[C@@H]1CCCN1C(=O)[C@H](CO)NC(=O)[C@H](CO)NC(=O)[C@H](Cc1c[nH]cn1)NC(=O)[C@H](CCCNC(=N)N)NC(=O)[C@H](CC(C)C)NC(=O)[C@H](Cc1ccccc1)NC(=O)[C@H](CCC(=O)O)NC(=O)[C@H](C)NC(=O)[C@H](CC(C)C)NC(=O)[C@H](CCCNC(=N)N)NC(=O)[C@H](CCC(N)=O)NC(=O)[C@@H](NC(=O)[C@H](C)NC(=O)[C@@H]1CSSC[C@H](NC(=O)[C@H](CCCCN)NC(=O)CC[C@H](NC(=O)CCCCCCCCCCCCCCCCCCC(=O)O)C(=O)O)C(=O)N[C@@H](CC(N)=O)C(=O)N[C@@H]([C@@H](C)O)C(=O)N[C@@H](C)C(=O)N[C@@H]([C@@H](C)O)C(=O)N1)[C@@H](C)O)C(=O)N1CCC[C@H]1C(=O)N[C@@H](CO)C(=O)N[C@@H](CO)C(=O)N[C@H](C(=O)N[C@@H](CC(N)=O)C(=O)N[C@H](C(=O)NCC(=O)N[C@@H](Cc1c[nH]cn1)C(=O)N[C@@H](CC(N)=O)C(=O)N[C@H](C(=O)N[C@@H](Cc1ccc(O)cc1)C(N)=O)[C@@H](C)O)C(C)C)[C@@H](C)O [Example 17] ({C20 diacid-γGlu}-KCNTATCATQRLAEFLRHSSPNFGAIPSSTNVGHNTY-NH2; disulfide 2-7 (inferred))
